Results reported in patent US20120270884A1, “Methods of Treating Aneurysmal Dilatation, Blood Vessel Wall Weakness and Specifically Abdominal Aortic and Thoracic Aneurysm Using Matrix Metalloprotease-2 Inhibitors” (SYMPHONY EVOLUTION, INC., priority 2009, published 2012).

Experiments:
MMP-13 (collagenase-3) = MMP-13 (collagenase-3) (Homo sapiens, UniProt P45452); test: In vitro metalloprotease inhibition, MMP-13; format: biochemical
[1] = target: T1, MMP-1 (Fibroblast collagenase) (Homo sapiens, UniProt P03956); test: In vitro metalloprotease inhibition, MMP-1; format: biochemical
T1 sequence (P03956 100-469): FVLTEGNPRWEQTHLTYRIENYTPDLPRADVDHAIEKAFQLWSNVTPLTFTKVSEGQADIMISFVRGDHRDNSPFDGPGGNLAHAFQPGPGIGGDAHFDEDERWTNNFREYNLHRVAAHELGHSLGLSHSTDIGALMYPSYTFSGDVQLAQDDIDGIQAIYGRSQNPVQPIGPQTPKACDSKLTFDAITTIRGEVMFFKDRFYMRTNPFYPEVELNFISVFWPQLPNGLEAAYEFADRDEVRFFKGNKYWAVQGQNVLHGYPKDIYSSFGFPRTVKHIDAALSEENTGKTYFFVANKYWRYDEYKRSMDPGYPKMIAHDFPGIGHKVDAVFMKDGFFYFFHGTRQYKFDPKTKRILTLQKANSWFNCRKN
Text: (§1) Blank cells indicate lack of data only.

[2] = target: T2, MMP-2 (72 kDa gelatinase, gelatinase A) (Homo sapiens, UniProt P08253); test: In vitro metalloprotease inhibition, MMP-2; format: biochemical
T2 sequence (P08253 110-660): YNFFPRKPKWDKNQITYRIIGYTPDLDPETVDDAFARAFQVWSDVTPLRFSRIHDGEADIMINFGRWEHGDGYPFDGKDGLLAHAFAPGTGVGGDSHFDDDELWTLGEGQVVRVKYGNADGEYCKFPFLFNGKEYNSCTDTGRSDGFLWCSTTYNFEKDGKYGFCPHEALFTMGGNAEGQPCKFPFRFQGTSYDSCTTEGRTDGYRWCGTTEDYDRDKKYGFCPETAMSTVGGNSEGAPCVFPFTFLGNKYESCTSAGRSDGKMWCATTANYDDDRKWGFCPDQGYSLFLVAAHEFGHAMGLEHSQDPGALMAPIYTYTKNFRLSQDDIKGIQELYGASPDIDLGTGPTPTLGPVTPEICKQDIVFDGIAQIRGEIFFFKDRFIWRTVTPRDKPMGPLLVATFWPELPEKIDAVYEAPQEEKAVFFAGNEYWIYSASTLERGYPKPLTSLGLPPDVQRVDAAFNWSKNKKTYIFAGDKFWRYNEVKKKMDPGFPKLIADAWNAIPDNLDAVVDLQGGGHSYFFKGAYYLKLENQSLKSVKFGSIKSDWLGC

ADAM-10 = target: T3, ADAM-10 (UniProt O14672); test: ADAM-10 enzyme assay, cleavage of fluorogenic 10-residue peptide; settings: read-out: IC50 ADAM-10; in vitro
T3 sequence (O14672 1-748): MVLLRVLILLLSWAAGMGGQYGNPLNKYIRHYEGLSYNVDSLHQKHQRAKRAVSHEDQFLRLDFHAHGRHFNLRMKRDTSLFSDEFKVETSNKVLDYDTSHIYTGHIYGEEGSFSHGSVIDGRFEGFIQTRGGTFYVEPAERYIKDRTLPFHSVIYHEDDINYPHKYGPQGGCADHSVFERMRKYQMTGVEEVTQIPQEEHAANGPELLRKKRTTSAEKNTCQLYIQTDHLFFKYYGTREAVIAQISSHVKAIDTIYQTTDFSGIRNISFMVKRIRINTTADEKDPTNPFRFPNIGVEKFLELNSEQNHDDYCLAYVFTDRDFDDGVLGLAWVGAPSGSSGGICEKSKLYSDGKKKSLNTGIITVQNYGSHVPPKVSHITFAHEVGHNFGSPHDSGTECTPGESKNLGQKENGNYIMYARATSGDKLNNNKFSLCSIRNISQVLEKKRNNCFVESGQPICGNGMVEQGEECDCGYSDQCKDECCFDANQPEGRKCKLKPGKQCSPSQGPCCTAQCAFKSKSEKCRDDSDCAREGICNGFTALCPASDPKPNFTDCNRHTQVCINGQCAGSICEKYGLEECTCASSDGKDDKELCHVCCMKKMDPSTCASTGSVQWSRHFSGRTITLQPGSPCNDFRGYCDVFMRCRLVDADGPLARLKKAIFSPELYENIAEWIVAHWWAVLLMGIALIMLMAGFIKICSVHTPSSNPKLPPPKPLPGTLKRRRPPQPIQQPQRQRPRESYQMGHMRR
Method: mADAM-10 or hADAM-10 activity was measured as the ability to cleave a 10-residue peptide (DABCYL-Leu-Leu-Ala-Gln-Lys-*-Leu-Arg-Ser-Ser-Arg-EDANS). […] Enzyme was diluted to a final active concentration of 5 nM in Buffer A (50 mM HEPES 8.0, 100 mM NaCl, 1 mM CaCl2 and 0.01% NP-40). Serial dilutions for compounds were performed ranging from 100 μM to 0.5 nM using a Beckman Biomek 2000 in polypropylene plates (Greiner). 20 μl of enzyme solution was added to 10 μl of compound in buffer A, and allowed to incubate for 15 min in 384 well black, Greiner, microtiter plates (#781076). 20 μl of substrate (12.5 μM in Buffer A) was then added, resulting in final reaction conditions of 2 nM ADAM-10, 5 μM substrate, and compound concentrations ranging from 20 uM to 0.1 nM. The reaction was incubated for 2 hr at RT, and fluorescence was measured at Ex355, Em460 on a Wallac Victor 2 fluorescence reader. […] This reaction was incubated for 16 hr at RT and fluorescence was read using identical conditions.

MMP-3 (Stromelysin-1) = MMP-3 (Stromelysin-1) (Homo sapiens, UniProt P08254); test: In vitro metalloprotease inhibition, MMP-3; format: biochemical
Sequence of MMP-3 (Stromelysin-1) (P08254 100-477, species assumed): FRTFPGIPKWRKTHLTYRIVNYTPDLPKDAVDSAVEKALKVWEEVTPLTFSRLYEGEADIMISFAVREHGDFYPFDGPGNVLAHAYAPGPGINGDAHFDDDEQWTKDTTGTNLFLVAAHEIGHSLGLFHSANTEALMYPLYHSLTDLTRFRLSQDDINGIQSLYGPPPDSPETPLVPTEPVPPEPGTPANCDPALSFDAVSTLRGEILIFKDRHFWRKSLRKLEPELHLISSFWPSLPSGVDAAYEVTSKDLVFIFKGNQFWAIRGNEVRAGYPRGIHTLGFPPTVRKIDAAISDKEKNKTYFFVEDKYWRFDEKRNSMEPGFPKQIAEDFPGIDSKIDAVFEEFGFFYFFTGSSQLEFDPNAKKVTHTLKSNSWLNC
Text: as §1

[3] = target: MMP-9 (92 kDa gelatinase, gelatinase B) (Homo sapiens, UniProt P14780); test: In vitro metalloprotease inhibition, MMP-9; format: biochemical
Sequence of MMP-9 (92 kDa gelatinase, gelatinase B) (P14780 94-707, species assumed): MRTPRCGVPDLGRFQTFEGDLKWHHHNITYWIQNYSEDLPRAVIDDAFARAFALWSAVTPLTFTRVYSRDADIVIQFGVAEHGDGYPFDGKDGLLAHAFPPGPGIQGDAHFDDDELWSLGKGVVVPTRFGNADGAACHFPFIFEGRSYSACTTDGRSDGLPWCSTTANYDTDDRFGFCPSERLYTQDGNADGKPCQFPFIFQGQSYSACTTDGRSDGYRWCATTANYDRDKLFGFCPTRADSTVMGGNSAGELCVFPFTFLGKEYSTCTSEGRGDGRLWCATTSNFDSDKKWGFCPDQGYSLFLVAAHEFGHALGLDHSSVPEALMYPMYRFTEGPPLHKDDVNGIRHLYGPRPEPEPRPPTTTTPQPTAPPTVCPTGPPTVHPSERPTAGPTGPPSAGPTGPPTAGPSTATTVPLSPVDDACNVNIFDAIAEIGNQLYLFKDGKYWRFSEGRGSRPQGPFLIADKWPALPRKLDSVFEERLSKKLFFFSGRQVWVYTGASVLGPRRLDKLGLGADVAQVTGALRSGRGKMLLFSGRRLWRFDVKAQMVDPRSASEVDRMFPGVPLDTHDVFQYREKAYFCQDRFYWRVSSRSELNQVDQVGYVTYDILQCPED

[4] = target: TACE (TNF-alpha converting enzyme, ADAM-17) (Homo sapiens, UniProt P78536); test: In vitro metalloprotease inhibition, TACE; format: biochemical
Sequence of TACE (TNF-alpha converting enzyme, ADAM-17) (P78536 215-824): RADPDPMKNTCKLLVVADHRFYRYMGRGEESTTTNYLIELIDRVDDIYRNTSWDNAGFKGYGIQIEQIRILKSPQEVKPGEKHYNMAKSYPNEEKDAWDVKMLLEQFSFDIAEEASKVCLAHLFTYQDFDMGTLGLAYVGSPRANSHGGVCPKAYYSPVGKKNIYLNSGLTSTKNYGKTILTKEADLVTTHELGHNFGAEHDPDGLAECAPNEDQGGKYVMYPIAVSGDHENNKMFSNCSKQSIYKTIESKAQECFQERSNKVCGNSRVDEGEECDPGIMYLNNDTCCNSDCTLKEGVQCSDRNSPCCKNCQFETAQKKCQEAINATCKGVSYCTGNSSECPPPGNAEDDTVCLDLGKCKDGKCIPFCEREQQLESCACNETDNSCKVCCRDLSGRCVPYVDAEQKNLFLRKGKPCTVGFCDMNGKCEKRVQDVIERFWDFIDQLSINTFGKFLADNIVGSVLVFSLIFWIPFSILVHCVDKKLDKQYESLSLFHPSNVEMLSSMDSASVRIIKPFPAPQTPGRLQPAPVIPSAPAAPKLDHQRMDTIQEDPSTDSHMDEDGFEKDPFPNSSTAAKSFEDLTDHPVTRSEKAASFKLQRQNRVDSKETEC
Text: as §1

[5] = target: MMP-8 (Neutrophil collagenase) (Homo sapiens, UniProt P22894); test: In vitro metalloprotease inhibition, MMP-8; format: biochemical
Sequence of MMP-8 (Neutrophil collagenase) (P22894 101-467, species assumed): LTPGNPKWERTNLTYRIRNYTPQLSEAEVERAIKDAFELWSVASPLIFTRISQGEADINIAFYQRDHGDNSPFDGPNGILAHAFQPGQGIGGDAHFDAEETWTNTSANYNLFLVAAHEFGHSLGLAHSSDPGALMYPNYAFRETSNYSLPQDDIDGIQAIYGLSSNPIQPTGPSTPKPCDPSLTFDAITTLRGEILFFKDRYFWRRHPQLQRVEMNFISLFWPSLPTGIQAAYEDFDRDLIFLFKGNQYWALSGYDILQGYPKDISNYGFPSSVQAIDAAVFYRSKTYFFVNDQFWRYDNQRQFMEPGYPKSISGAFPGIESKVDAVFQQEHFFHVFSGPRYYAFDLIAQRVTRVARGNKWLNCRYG

[6] = test system: abdominal aorta of C57/B16 mice after elastase perfusion; test: Elastase-perfusion mouse model of AAA; format: in vivo
Text: All mice used in the experiment were commercially obtained C57/B16 inbred strain mice. Throughout the experimental course, mice were allowed free access to food and water. Animals were housed in a controlled animal facility, and all mouse care and treatment occurred under approved protocols.
A total of 89 C57/B16 mice were subjected to transient perfusion of the abdominal aorta according to a protocol known in the art. Briefly, after sedation and preparation, the aorta was approached through a midline laparotomy. The infrarenal aorta was dissected and the diameter was measured under physiologic blood pressure. A segment of infrarenal aorta was isolated and a 5 minute perfusion of this segment was performed through an arteriotomy at 100 mmHg with a solution containing type I porcine pancreatic elastase (PPE 0.16 U/mL). All of the experiments were performed with a single PPE preparation derived from the same commercial source and lot.
Following aortic perfusion the arteriotomy was repaired, the laparotomy was closed and the animal was allowed to completely recover before returning to its standard housing.
Following aortic perfusion, animals were placed into one of 5 treatment groups. […] Three different doses of the agent were used, 50 mg/kg/day (n=17), 125 mg/kg/day (n=17), and 250 mg/kg/day (n=18). There were two mice in each group which died following aortic perfusion, and all others were available for analysis. Control animals (n=18) were similarly treated with daily gavage of the Cremophor diluent only. Of these mice, 16 survived the two weeks following aortic perfusion and underwent final aortic measurements and harvest. […] In this group, 4 mice died prior to the two week harvest, and all others were used in the analysis of aneurysm growth.
Two weeks following elastase perfusion, the mice were again anesthetized; the laparotomy incision was reopened and the final aortic diameter was measured in vivo prior to sacrifice. The animals were humanely sacrificed, and circulating blood and the entire perfused segment of aorta was harvested for RNA extraction, protein extraction or histology.
The aortas from several mice from each experimental group were perfusion fixed with 10% neutral-buffered formalin, removed, and placed in additional formalin for a minimum of 24 hours prior to processing for paraffin embedding. Following paraffin embedding, aortic specimens were cut into 5 μm sections and mounted on glass slides. Each specimen was stained with hematoxylin and eosin to evaluate inflammatory cell infiltration and Accustain® Elastic Stain kit to assess the degree of elastin degradation. Photomicrographs of serial sections were obtained using an Olympus BX60 light microscope equipped with CV12 video capture camera. […]

SMILES | IC50 (MMP-13 (collagenase-3)) | IC50 [1] | IC50 [2] | IC50 (ADAM-10) | IC50 (MMP-3 (Stromelysin-1)) | IC50 [3] | IC50 [4] | IC50 [5] | animals which did not develop aneurysms (% ΔAD not greater than 100%) ([6]; mice, 250 mg/kg/day daily gavage, 2 weeks, not statistically different than controls) | aortic histology: degree of elastin damage and inflammatory cell inflammation ([6]; mice, 50, 125, 250 mg/kg/day daily gavage, aorta at harvest, H&E and VVG stain) | aortic diameters at harvest versus control animals ([6]; mice, all doses (50, 125, 250 mg/kg/day), 2 weeks) | maximal diameters (% ΔAD) of all animals ([6]; mice, low and intermediate dose groups (50 and 125 mg/kg/day), 2 weeks)
O=C(NO)[C@H]1CN(C(=O)c2cc(F)c(O)c(F)c2)CCN1S(=O)(=O)c1cc(F)c(Oc2ccc(Cl)cc2)c(F)c1 [Entry 41] | < 50 nM | 1 to 20 µM | < 50 nM | < 50 nM | < 50 nM |  |  |  |  |  |  | 
O=C(NO)[C@H]1CN(C(=O)N2CCOCC2)CCN1S(=O)(=O)c1cc(F)c(Oc2ccc(Cl)cc2)c(F)c1 [Entry 30] | < 50 nM | 1 to 20 µM | < 50 nM |  | 50 to 1000 nM | 50 to 1000 nM | 50 to 1000 nM | < 50 nM |  |  |  | 
COCCOC(=O)N1CCN(S(=O)(=O)c2cc(F)c(Oc3ccc(Cl)cc3)c(F)c2)[C@@H](C(=O)NO)C1 [Entry 15] |  | 1 to 20 µM |  |  | 50 to 1000 nM |  | 50 to 1000 nM |  | 12% | inversely correlated with the dose of the agent administered | significantly smaller than control animals | greater than 100%
